Assay results taken from ChEMBL document CHEMBL4007427, “Inhibition of the Aldehyde Dehydrogenase 1/2 Family by Psoralen and Coumarin Derivatives” (J Med Chem, 2017).

Tests used:
[1] = target: T1, Aldehyde dehydrogenase, dimeric NADP-preferring (Homo sapiens, UniProt P30838); experiment: Inhibition of full length recombinant human ALDH3A1 expressed in Escherichia coli BL21(DE3) assessed as reduction in dehydrogenase activity by measuring NAD(P)H level preincubated for 2 mins followed by addition of benzaldehyde as substrate in presence of NADP+ by spectrophotometric method
T1 sequence (P30838 whole entry): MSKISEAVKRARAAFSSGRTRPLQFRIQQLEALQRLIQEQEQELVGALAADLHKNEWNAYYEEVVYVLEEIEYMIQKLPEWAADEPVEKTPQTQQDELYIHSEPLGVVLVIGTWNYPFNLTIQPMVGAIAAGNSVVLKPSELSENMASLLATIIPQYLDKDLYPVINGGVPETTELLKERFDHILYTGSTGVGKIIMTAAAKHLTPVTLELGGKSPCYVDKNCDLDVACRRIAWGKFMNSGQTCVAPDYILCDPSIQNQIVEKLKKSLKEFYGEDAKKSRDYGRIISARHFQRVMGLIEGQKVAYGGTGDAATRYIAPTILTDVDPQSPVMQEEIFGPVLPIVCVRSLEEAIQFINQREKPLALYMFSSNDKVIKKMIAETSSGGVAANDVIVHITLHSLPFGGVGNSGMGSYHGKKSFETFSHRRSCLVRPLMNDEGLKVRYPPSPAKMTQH

[2] = target: T2, Aldehyde dehydrogenase, mitochondrial (Homo sapiens) (UniProt P05091); experiment: Inhibition of full length recombinant human ALDH2 expressed in Escherichia coli assessed as remaining dehydrogenase activity by measuring NAD(P)H level at 10 uM preincubated for 2 mins followed by addition of propionaldehyde as substrate in presence of NAD+ by spectrophotometric method
T2 sequence (whole entry): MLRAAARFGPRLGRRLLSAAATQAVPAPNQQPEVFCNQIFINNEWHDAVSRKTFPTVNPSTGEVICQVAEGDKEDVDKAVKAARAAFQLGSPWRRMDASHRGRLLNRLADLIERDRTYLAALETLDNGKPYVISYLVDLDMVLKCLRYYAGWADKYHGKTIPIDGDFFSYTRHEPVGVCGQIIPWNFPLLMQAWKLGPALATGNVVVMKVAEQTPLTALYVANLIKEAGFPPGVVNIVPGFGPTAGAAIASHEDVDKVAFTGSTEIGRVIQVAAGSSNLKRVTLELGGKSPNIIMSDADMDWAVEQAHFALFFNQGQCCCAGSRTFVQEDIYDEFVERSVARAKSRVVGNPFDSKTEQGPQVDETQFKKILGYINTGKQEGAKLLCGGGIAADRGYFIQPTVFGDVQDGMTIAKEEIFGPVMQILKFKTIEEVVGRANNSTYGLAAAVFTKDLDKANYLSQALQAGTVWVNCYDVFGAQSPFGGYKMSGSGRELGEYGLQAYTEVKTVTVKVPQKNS

[3] = target: T3, Aldehyde dehydrogenase, dimeric NADP-preferring (Homo sapiens) (UniProt P30838); experiment: Inhibition of full length recombinant human ALDH3A1 expressed in Escherichia coli BL21(DE3) assessed as remaining dehydrogenase activity by measuring NAD(P)H level at 10 uM preincubated for 2 mins followed by addition of propionaldehyde as substrate in presence of NAD+ by spectrophotometric method
T3 sequence (whole entry): T1 sequence (P30838 whole entry)

Retinal dehydrogenase 2 = target: T4, Retinal dehydrogenase 2 (Homo sapiens, UniProt O94788)
T4 sequence (O94788 whole entry): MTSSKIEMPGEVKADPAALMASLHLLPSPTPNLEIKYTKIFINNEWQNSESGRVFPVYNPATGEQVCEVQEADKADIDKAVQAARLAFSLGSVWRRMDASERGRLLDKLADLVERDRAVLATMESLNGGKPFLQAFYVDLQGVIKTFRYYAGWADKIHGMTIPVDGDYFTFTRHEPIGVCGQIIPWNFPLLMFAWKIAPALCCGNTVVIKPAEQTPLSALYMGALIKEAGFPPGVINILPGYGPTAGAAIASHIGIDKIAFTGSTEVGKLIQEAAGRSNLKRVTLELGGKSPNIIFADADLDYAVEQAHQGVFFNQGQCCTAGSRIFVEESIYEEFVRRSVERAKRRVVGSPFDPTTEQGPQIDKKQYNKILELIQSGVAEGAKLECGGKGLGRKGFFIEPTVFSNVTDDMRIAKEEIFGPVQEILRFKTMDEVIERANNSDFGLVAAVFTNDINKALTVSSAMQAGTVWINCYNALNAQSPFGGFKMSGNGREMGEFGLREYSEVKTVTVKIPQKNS
Description: Inhibition of full length recombinant human ALDH1A2 expressed in Escherichia coli BL21(DE3) assessed as reduction in dehydrogenase activity by measuring NAD(P)H level preincubated for 2 mins followed by addition of propionaldehyde as substrate in presence of NAD+ by spectrophotometric method

[4] = target: T5, Aldehyde dehydrogenase X, mitochondrial (Homo sapiens, UniProt P30837)
T5 sequence (P30837 whole entry): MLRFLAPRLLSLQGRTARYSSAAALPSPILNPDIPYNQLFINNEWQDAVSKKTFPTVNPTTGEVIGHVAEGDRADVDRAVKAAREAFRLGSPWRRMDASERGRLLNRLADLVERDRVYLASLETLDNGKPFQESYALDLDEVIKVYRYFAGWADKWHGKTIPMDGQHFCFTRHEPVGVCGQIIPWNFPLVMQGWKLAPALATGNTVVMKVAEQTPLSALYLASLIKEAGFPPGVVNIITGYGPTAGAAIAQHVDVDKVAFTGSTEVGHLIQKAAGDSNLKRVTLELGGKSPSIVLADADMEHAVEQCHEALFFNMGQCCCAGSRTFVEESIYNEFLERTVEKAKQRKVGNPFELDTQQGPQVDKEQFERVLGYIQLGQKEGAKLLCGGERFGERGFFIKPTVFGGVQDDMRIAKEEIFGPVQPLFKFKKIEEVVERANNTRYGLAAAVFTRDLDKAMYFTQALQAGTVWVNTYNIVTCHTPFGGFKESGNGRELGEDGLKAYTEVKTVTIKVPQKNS
Description: Inhibition of full length recombinant human ALDH1B1 expressed in Escherichia coli TunerDE3 assessed as reduction in dehydrogenase activity by measuring NAD(P)H level preincubated for 2 mins followed by addition of propionaldehyde as substrate in presence of NAD+ by spectrophotometric method

[5] = target: T6, Aldehyde dehydrogenase, mitochondrial (Homo sapiens, UniProt P05091)
T6 sequence (P05091 whole entry): T2 sequence (whole entry)
Description: Inhibition of full length recombinant human ALDH2 expressed in Escherichia coli assessed as reduction in dehydrogenase activity by measuring NAD(P)H level preincubated for 2 mins followed by addition of propionaldehyde as substrate in presence of NAD+ by spectrophotometric method

Row | Structure (SMILES) | IC50 [1] | Activity [2] [%] | Activity [3] [%] | IC50 (Retinal dehydrogenase 2) [nM] | IC50 [4] [nM] | IC50 [5] [nM]
1 | Cc1oc2cc3oc(=O)c(C)c(C)c3cc2c1C | Not Active | 19.5 | 95.3 | 330 | 310 | –
2 | Cc1oc2cc3oc(=O)c(CCC(=O)N4CCCCC4)c(C)c3cc2c1C | Not Active | 3.8 | 105 | 1600 | 2600 | 2000
3 | CCCc1c(C)c2cc3c(C)c(C)oc3cc2oc1=O | Not Active | 1.61 | 86.3 | 300 | 360 | 110
4 | CCCc1c(C)c2cc3c(C)coc3cc2oc1=O | Not Active | 6.25 | 96.1 | 760 | 880 | 340
5 | C/C(=N\O)c1cc2cc(Br)ccc2oc1=O | Not Active | 48.2 | 91.7 | – | – | 4600
6 | COC(=O)C(C)Oc1ccc2c(C)cc(=O)oc2c1 (configuration not stated) | Not Active | 5.72 | – | – | – | 1500
7 | CCCc1cc(=O)oc2cc3oc(C)c(C)c3cc12 | Not Active | 23.8 | 80.4 | 69 | 86 | 360
8 | Cc1oc2cc3oc(=O)c4c(c3cc2c1C)CCC4 | Not Active | 8.25 | 87.1 | 130 | 160 | 67
